The values below come from publication PMC8895377, “In Vivo Targeting Replication Protein A for Cancer Therapy” (Frontiers in Oncology, 2022).

In one data set the test system is H460 NSCLC cells. The experiment in a line: CCK-8 viability assay. The format is cell-based, human. To be noted: H460, 48 h, compared to 551 predecessor. The method, then:
Cell lines were obtained from ATCC and maintained as monolayer cultures in RPMI 1640 medium (H460) or Dulbecco’s Modified Eagle's Medium (DMEM) (A549) supplemented with 10% fetal bovine serum. H460 and A549 cells were plated at 2.5 × 10^3 cells/well and A2780 and GCT27 cells plated at 5 × 10^3 cells/well in a 96-well plate and incubated for 18–24 h prior to treatments. Cells were treated with the indicated concentration of RPAi for 48 h. The vehicle (DMSO) concentration was held constant at 1%. Cell metabolism/viability was assessed by a mitochondrial metabolism assay (CCK-8) as we have described previously ([10]). The generation of the water-soluble formazan product by cellular dehydrogenases is proportional to the number of living cells. Following incubation with CCK-8 reagent, absorbance was measured at 450 nm with a BioTek Synergy H1 plate reader. Values were compared to those of vehicle-treated controls to determine percent viability, and the results represent the average and SEM of triplicate determinations.
In general terms: Tetrazolium assays rely on reduction of a dye to a coloured formazan, in cell work by metabolically active cells.

In data set [1] the test system is A549 adenocarcinoma and H460 large cell carcinoma. Further details: method as in doi:10.1101/2020.11.30.404640. To be noted: both models, differing dosing regimens, DMSO/Tween; cited from earlier work.
Details of data set [2]: method as in PMID 32550990. Conditions: cited from earlier work.
The target of data set [3] is Escherichia coli single strand binding protein (SSB) (Escherichia coli, UniProt P0AGE0). The experiment in a line: EMSA internal specificity control, SSB–ssDNA complex. Conditions: internal specificity control in EMSA. The method, then: (§1) EMSAs were performed as previously described ([9]). Briefly, reactions were conducted in 20 mM HEPES (pH 7.8), 1 mM DTT, 0.001% NP-40, and 50 mM NaCl. RPAis were suspended in 100% dimethlysulfoxide (DMSO), and DMSO concentration in the final reaction mixture was constant at less than 5%. Purified full-length RPA (120 ng) was incubated with the indicated RPAi or vehicle in reaction buffer for 30 min before the addition of the [^32]P-labeled 34-base ssDNA probe. Reactions were incubated for 5 min at room temperature, and products were separated via 6% native polyacrylamide gel electrophoresis. The bound and unbound fractions were quantified by phosphor-imager analysis using ImageQuant software (Molecular Dynamics, CA), and data were fit by non-linear regression using GraphPad Prism.
Chain of Escherichia coli single strand binding protein (SSB) (P0AGE0 2-178): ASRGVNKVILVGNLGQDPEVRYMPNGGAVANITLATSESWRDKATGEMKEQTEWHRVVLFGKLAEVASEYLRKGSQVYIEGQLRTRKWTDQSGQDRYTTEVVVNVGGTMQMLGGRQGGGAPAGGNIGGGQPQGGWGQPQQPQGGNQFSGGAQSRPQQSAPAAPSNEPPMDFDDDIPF
(§2) Figure 2 Replication protein A inhibitor (RPAi) inhibitory activity. (A) Chemical structure of RPAi’s 329 and 2004. (B) EMSA analysis of RPA–DNA interaction inhibition by 329 and 2004. Lanes 3–6 in each panel contain 6.25, 12.5, 25, and 50 µM of the indicated RPAi, respectively. The * indicates the position of the Escherichia coli SSB–single-stranded DNA (ssDNA) complex that serves as an internal specificity control. (C) Cell viability of H460 NSCLC cells in response to 329 and 2004.
Background: A gel shift assay detects complexes by their altered migration in electrophoresis.

Data set [4] has as its target T1, RPA–DNA interaction (purified full-length RPA) (Homo sapiens, UniProt P27694).
T1 construct: Purified full-length RPA (120 ng) was incubated with the indicated RPAi
The experiment in a line: EMSA of RPA–DNA interaction inhibition. The format is binding. To be noted: 6.25, 12.5, 25, 50 µM RPAi. The method, then:
as §1, §2

For data set [5], the system named is H460 cells. The data set is described as follows: DNA fiber analysis of replication fork dynamics. The format is cell-based, human. Here is the method:
Analysis of DNA replication intermediates was performed as previously described with minor modifications ([11], [12]). H460 cells were seeded in 6-well plates at a density of 2 × 10^5 cells. […] After harvesting, the cells were resuspended in PBS at a concentration of 1,000,000 cells/ml, and 2 µl of the cell suspension was mixed with 8 µl of lysis buffer (200 mM Tris-HCl pH 7.5, 50 mM EDTA, 0.5% SDS) on a Superfrost Plus microscope slide (Fisher Scientific). After 6 min of incubation, the slides were tilted at a 45-degree angle to allow cell lysates to slowly run down the slide. After air-drying, the slides were fixed in methanol:acetic acid (3:1) and stored at 4°C. DNA fibers were denatured with 2.5N HCl for 1 h, washed with PBS, and blocked with 5% BSA in PBS-T (PBS + 0.1% Tween-20) for 1 h. […] Excess antibodies were removed by washing with PBS-T 3 times. After air-drying, the slides were mounted onto a coverslip with mounting medium. Fiber tracts were imaged with a Nikon epifluorescence microscope using a 40× oil immersion objective, and 100 fibers for each group were analyzed in ImageJ where the ratios of CldU : IdU were compared using pixel length. Data were analyzed by ANOVA with Bonferroni test for multiple comparisons.
(A) Schematic depiction of experimental design. DNA was pulse-labeled with IdU for 20 min. After IdU removal, replication forks were stalled by the addition of HU or left to replicate with vehicle treatment. HU was removed, and replication was labeled with CldU. Following CldU, cells were treated with the DDRi or vehicle. […] Data presented are combined from three individual experiments (100 fibers analyzed per experiment; 300 fibers total). Red bar indicates the median value of CldU/IdU.

Data set [6] concerns H460 cells. The data set is described as follows: Chou-Talalay combination studies with RPAi 329. The format is cell-based, human. Conditions: H460, combination with RPAi 329. Here is the method: To assess synergy, the combination index (CI) was determined as described by Chou-Talalay as we have previously described ([8]). Briefly, H460 cells were treated with RPAi and the indicated agent alone and in combination. […] The data from both the single-agent treatments and the combination treatment were used to calculate the CI and plot this value as a function of the fraction of cells affected (Fa). A CI of >1 indicates antagonism between the two agents, while a CI <1 indicates synergy.
(A) Chou-Talalay analysis of combination with chemotherapeutics. […] (B) Chou-Talalay analysis of combination with DDR-targeted agents as described in panel (A).

Data set [7] concerns H460 cells. The experiment in a line: Caspase 3/7 apoptosis assay. The format is cell-based, human. To be noted: H460, 24 h. Here is the method: Apoptosis induction was determined by activation of Caspases 3 and 7 using the CellEvent™ Caspase-3/7 Green Detection Reagent (Invitrogen). H460 cells were plated at 5 × 10^3 cells/well in black 96-well plates with clear bottoms (Costar) and incubated for 24 h prior to treatments. Cells were treated with the indicated concentration of RPAi or cisplatin for 24 h. The vehicle (DMSO) concentration was held constant at 1% for RPAi treatments. For caspase 3/7 detection, medium was removed and replaced with phosphate buffered saline (PBS) containing 5% fetal bovine serum (FBS) and 2 µM CellEvent™ Caspase-3/7 Green Detection Reagent. Cells were incubated at 37°C/5% CO2 for 1 h, and fluorescence intensity was measured in a BioTek Synergy H1 plate reader (excitation/emission 485/528). Images were captured with an Evos FL2 Auto microscope (Invitrogen) using a 10× objective.
Figure 3 The 329 induction of apoptotic cell death. (A) Analysis of caspase 3/7 activity in H460 cells following 24 h of treatment with 1% DMSO or the indicated concentrations of 329. Fluorescence images were captured as described in the Materials and Methods. (B) Quantification of caspase 3/7 activity. Fluorescence was measured in 96-well plates using a Biotek Synergy H1 plate reader following 24-h incubation with the indicated drugs and concentrations.

For data set [8] the following is noted: cited from earlier work.
For data set [9], the system named is lung cancer xenograft models. To be noted: cited from earlier work.

T1 sequence (P27694 whole entry): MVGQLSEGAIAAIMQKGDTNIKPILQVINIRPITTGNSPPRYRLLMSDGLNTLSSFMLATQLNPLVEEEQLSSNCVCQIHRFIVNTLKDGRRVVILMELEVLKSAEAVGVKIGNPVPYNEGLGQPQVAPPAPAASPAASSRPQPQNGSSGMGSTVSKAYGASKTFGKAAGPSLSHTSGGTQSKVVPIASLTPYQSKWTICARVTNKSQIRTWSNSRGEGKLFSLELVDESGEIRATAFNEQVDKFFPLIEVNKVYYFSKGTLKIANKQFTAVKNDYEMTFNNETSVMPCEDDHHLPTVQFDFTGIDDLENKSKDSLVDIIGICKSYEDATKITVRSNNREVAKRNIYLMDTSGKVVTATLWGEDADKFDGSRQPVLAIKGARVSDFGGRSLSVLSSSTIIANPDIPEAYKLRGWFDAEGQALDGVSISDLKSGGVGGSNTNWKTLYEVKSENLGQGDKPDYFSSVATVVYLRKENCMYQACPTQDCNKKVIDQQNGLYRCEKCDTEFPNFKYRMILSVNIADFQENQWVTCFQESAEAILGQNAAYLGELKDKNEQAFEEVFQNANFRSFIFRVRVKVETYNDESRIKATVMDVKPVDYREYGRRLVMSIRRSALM
T1 sequence (P15927 whole entry partner): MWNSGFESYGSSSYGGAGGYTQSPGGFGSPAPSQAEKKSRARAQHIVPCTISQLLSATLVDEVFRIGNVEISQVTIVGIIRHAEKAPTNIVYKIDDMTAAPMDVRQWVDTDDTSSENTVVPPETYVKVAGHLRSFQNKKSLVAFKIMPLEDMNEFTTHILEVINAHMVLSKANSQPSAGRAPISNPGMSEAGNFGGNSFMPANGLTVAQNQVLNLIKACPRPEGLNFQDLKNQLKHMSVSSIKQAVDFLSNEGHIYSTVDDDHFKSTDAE
T1 sequence (P35244 whole entry partner): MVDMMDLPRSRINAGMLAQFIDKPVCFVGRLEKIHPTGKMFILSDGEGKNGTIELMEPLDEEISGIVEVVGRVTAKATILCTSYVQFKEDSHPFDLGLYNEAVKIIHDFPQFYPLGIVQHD

With `CCOc1ccc2cc(C3CC(c4ccc(Br)cc4)=NN3C(=O)CCCC(=O)NCCCN3CCOCC3)c(Cl)nc2c1` (centres unmarked) [compound 2004], the “single-agent cellular anticancer activity (CCK-8)” value with H460 NSCLC cells is on record as “potent single-agent activity”. Moreover, the “single-agent anticancer activity in vivo” value in [1] is “only modest single-agent anticancer activity”. Moreover, the “solubility, cellular uptake, and physicochemical properties” value in [2] was “excellent”. Besides, in data set [3], the “interaction of E. coli SSB with ssDNA” value is listed as “not impacted”. Moreover, in [4], the “RPA inhibitory activity (RPA–DNA interaction, EMSA)” value is on record as “potent RPA inhibitory activity”.

For the compound `N=C1NC(=O)/C(=C/c2ccc(O)cc2)S1` [mirin], in the data set with H460 cells [5] (H460, HU then ATRi or RPAi), the “reversal of the CldU/IdU decrease” value is listed as “reversible”.

As to `O=C1NC(=O)c2c1c(-c1ccccc1Cl)cc1[nH]c3ccc(O)cc3c21` [Wee1 inhibitor], the “synergy with RPAi 329 (Chou-Talalay)” value in the data set with H460 cells [6] is recorded as “antagonistic or additive”.

Consider `CCOc1ccc2cc(C3CC(c4ccc(I)cc4)=NN3C(=O)CCCC(=O)O)c(Cl)nc2c1` (centres unmarked) [compound 551], for which, in the data set on H460 cells [7], the “activation of caspases 3 and 7” value is recorded as “inability to detect caspase activity”. Further, the “caspase activation or annexin V/PI positivity” value in [8] is “not accompanied by caspase activation or annexin V/PI positivity”. Moreover, the “tumor growth delay, combination with carboplatin” value in [9] (NSCLC xenograft models, reduced doses of carboplatin and 551, versus each agent alone) is recorded as “greater than additive effect on tumor growth delay”. For the same compound, the in vivo activity result in [9] is reported as “modest in vivo activity”.

Consider `CNCc1ccc(-c2cc(-c3nc(-c4ccc(S(=O)(=O)C(C)C)cc4)cnc3N)on2)cc1` [VE-822], for which the “CldU/IdU signal after HU” value with H460 cells [5] (H460, HU 2.5 mM then 329 50 µM or VE-822 2 µM) is on record as “significant decrease in CldU/IdU signal”. The “CldU/IdU, inhibitor alone” value with H460 cells [5] (H460, without HU, 329 50 µM, VE-822 2 µM, 2 h) is reported as “minimal effects”.

Turning to `Cn1ncnc1[C@H]1c2n[nH]c(=O)c3cc(F)cc(c23)N[C@@H]1c1ccc(F)cc1` [BMN637], the “synergy with RPAi 329 (Chou-Talalay)” value in the data set with H460 cells [6] is on record as “modest synergy”.
